Assay results taken from patent US10086086B2, “Payload molecule delivery using molecular rebar” (Molecular Rebar Design, LLC, priority 2014, dated 2018).
Read-outs that look alike come from different tables or passages of the source.

Tests used:
[1] = in water, cited from earlier work
[2] = Displacement of adsorbed payload molecule from discrete carbon nanotubes by later addition of PVOH; format: physicochemical
[3] = not given; remark: listed apart in the source

NC(=O)CC[C@@H]1NC(=O)[C@H](Cc2ccccc2)NC(=O)[C@H](Cc2ccc(O)cc2)NC(=O)CCSSC[C@@H](C(=O)N2CCC[C@H]2C(=O)N[C@H](CCCN=C(N)N)C(=O)NCC(N)=O)NC(=O)[C@H](CC(N)=O)NC1=O [Desmopressin]
Hydrodynamic Radius [1]: 0.88 nm

CCOP(=O)(Cc1ccc(OC)cc1)OCC [D4MBP]
D4MBP originally residing on the outermost wall displaced by the PVOH, estimated ([2]; Example 10, calculation as in Example 1): about 80%

Insulin
Hydrodynamic Radius [1]: 2.1 nm

Cytochrome C
Hydrodynamic Radius [1]: 2.64 nm

CN1CCCC1c1cccnc1 (centres unmarked) [Nicotine]
Hydrodynamic Radius [1]: 0.38 nm

O=C(O)c1cccnc1 [Niacin, Pyridine-3-carboxylic acid]
final adsorption of niacin after sodium hydroxide addition (Example 6: no PVOH, 2 ml 0.1 molar sodium hydroxide added after equilibrium, pH from about 4 to about 7.3, about 180 minutes): 0.03 g niacin/g discrete carbon nanotubes | reduction of the amount of niacin adsorbed on the discrete carbon nanotubes after sodium hydroxide addition (Example 7: PVOH-encapsulated, 2 ml 0.1 Molar sodium hydroxide, overall period 40 + 55 + 110 minutes, pH about 4.2 to 8): about 42% | equilibrium niacin concentration on discrete carbon nanotubes before pH increase (Example 7: niacin then PVOH, PVOH to discrete carbon nanotubes 0.3:1 by weight): 0.0476 g niacin/g discrete carbon nanotubes | adsorbed niacin released by subsequent addition of PVOH ([2]; Example 4: PVOH added after niacin adsorption equilibrium, weight ratio 0.23 PVOH:1 discrete carbon nanotubes): 25 % wt. | ratio of niacin adsorbed internally versus externally (times less internally) ([3]; Example 1, assumes same adsorption concentration on both walls): about 2.4 times | amount of niacin adsorbed after 5 hours ([3]; Example 2: nanotubes with 0.05% weight oxidized species, otherwise as Example 1): 0.088 g niacin/g discrete carbon nanotubes | niacin adsorbed, less than in Example 1 ([3]; Example 3 (PVOH added at the same time) versus Example 1 (no PVOH)): ~30% | concentration of adsorbed niacin after a further 85 minutes ([3]; Example 5: nanotubes pretreated with PVOH about 20 hours, then niacin added, 100 + 85 minutes): 0.0226 g niacin/g of discrete carbon nanotubes | Hydrodynamic Radius [1]: 0.33 nm

Bovine serum albumin
Hydrodynamic Radius [1]: 7.0 nm | Hydrodynamic Radius ([1]; listed as bovine serum albumin): 7 nm

B1: Myoglobin (protein, UniProt P68082 2-154, looked up)
Myoglobin: GLSDGEWQQVLNVWGKVEADIAGHGQEVLIRLFTGHPETLEKFDKFKHLKTEAEMKASEDLKKHGTVVLTALGGILKKKGHHEAELKPLAQSHATKHKIPIKYLEFISDAIIHVLHSKHPGDFGADAQGAMTKALELFRNDIAAKYKELGFQG
Hydrodynamic Radius [1]: 3.34 nm
